Patent US12018059B2, “Human amylin analog polypeptides and methods of use” (Intarcia Therapeutics, Inc., priority 2018, dated 2024)
Values belong to the molecule of their own block, whether it stands above or below them. Positions of bridges follow the written chain, without caps; N, C: chain ends. Residues, ends and D or L forms follow the SMILES beside them. *: point of attachment. X5 = O=C(O)CCCCCCCCCCCC(=O)*

How the values were obtained:
[1] = Pharmacokinetics, 3-hour intravenous infusion of linear (non-acylated) polypeptides; design: species or system Sprague-Dawley rats; conditions: rat, in vivo, 0.1 mg/kg
Procedure: Peptides were dissolved in sterile saline and administered as a 3-hour intravenous infusion to non-fasted male Sprague-Dawley rats (n=3 per group) via femoral vein cannula at a final dose of 0.100 mg/kg. […] Blood samples (approximately 250 μL) were collected for pharmacokinetic analysis via a jugular vein cannula at 0.25, 0.5, 1, 2, 3, 3.17, 3.33, 3.5, 4, 4.5, 5, and 6 hr post-start of infusion (long method) or at 1, 1.5, 2, 2.5, and 3 hr post-start of infusion (steady-state screening method). All samples were collected into microtainer tubes containing K2EDTA as anticoagulant and 25 μL of a protease inhibitor cocktail. Plasma was prepared by centrifugation and stored at −80° C. until analysis. The results of this analysis are shown in Table 9 and few exemplars in FIGS. 3a-3b.
A 60 μL aliquot of each plasma sample was placed into to a 96-well plate. To each well was added 6 μL of 0.5% Tween-20. Plates were then vortexed mixed for 10 minutes at 1200 rpm before 180 μL of 0.1% TFA in 2:1 ethanol:acetonitrile containing an appropriate internal standard was added to each well. Plates were vortex mixed for 5 min at 1300 rpm, and then centrifuged for 10 min at 2844×g. Supernatants (180 μL) were placed into a clean 96-well plate and evaporated under a nitrogen stream at 45° C. Residues were reconstituted in 80 μL of 20% acetonitrile (aq) containing 0.1% formic acid.
A […] aliquot of each plasma sample was diluted with […] of 10 mM ammonium acetate (pH 6.8) containing an appropriate internal standard and loaded onto an Oasis WCX microElution plate (Waters Corporation, Milford, MA) that had been pre-conditioned with […] of methanol and […] of deionized water. Samples were washed with […] of 5% ammonium hydroxide (aq) followed by […] of 20% acetonitrile in water. The analyte was eluted with […] of 5% formic acid in 75:25 acetonitrile:water. The eluent was dried under a nitrogen stream. Residues were reconstituted in 80 μL of 20% acetonitrile (aq) containing 0.1% formic acid.
All calibration standards were prepared in control rat plasma containing K2EDTA and protease inhibitor cocktail.
Samples and standards were analyzed by TurbolonSpray™ UPLC-MS/MS using a system consisting of a CTC HTS PAL auto-injector (Leap, Carrboro, NC), an Agilent Infinity 1290 system with column oven (Palo Alto, CA), a Valco switching valve (Houston, TX), and either an AB Sciex API 5600 TripleTOF™ or Sciex API 4000QTrap mass spectrometer (Framingham, MA). Samples were injected onto a 2.1×50 mm reverse phase C18 analytical column, typically a Waters CORTECS UPLC C18+, 1.6 μm (Waters Corporation, Milford, MA) or similar. […] Initial conditions consisted of 90% A and 10% B. The organic component was increased to 95% B over a period of 3-4 minutes, depending on the peptide. Typical flow rates were 600 μL/min. The column temperature was held constant at 40 or 50° C. Peptides were quantified by monitoring one or more product ions produced from a multiply charged parent ion.

[2] = biological target: T1, human calcitonin receptor (hCTR) (Homo sapiens, UniProt P30988); test: cAMP accumulation functional assay in HEK293-CNG cells expressing hCTR; assay type: cell-based; conditions: presence versus absence of HSA (FIG. 2D)
T1 sequence (P30988 25-474): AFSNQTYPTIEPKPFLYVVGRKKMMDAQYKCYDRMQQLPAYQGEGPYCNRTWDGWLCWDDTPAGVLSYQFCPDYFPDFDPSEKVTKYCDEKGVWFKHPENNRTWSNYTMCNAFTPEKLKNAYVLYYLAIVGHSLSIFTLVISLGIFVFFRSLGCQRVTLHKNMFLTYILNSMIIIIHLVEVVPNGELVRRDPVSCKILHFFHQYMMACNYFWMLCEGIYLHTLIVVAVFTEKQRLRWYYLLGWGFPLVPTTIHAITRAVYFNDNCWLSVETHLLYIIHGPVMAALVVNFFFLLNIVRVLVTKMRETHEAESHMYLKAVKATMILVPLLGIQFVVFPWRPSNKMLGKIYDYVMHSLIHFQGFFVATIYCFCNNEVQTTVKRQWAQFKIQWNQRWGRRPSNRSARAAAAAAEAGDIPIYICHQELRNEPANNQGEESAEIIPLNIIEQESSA
Procedure: In the presence of the non-specific cAMP/cGMP phosphodiesterase inhibitor 3-isobutyl-1-methylxanthine (IBMX), accumulating cAMP can be measured in vitro using common detection methods. Thus, it is possible to estimate an in vitro potency (pEC50) for peptides activating each of these receptors using fit dose-response curves for cAMP accumulation.
Cells were carried in growth media for no more than 10 passages prior to testing.
Peptides were serially diluted in the same buffer as above for each given assay condition. Two assay control solutions consisting of 50 mcM forskolin (cAMP system maximum) or assay buffer only (cAMP system minimum) were also prepared in the appropriate stimulation buffers. Five microliters of each peptide-concentration, or assay control was added to triplicate wells and incubated for thirty minutes at room temperature. During this incubation step a 4× europium labelled cAMP tracer solution and a 4× Ulight®-anti-cAMP solution (consisting of an anti-cAMP monoclonal antibody labelled with Ulight™ dye) was prepared according to the manufacturer's protocol (PerkinElmer LANCE Ultra cAMP kit). Following this incubation, 5 mcL europium labelled cAMP and 5 mcL Ulight anti-cAMP antibody was added to wells. The plate was covered with an adhesive cover to prevent evaporation and incubated for 60 minutes at room temperature in the dark. Plates were read on an Envision fluorescent plate reader (PerkinElmer).
Test values were first normalized to the forskolin induced cAMP system maximum and system minimum averaged values in Excel using the formula: (test value−system minavg)/(system maxavg−system minavg)*100. Normalized test values represent a baseline corrected percentage of the system maximum cAMP response induced by forskolin. Normalized data was analyzed from triplicate tests and used to estimate the EC50 for each peptide on each receptor. Data was fit in GraphPad Prism software (v7.04) using a 4-parameter logistic curve model: Y=Bottom+(Top−Bottom)/(1+10^((Log EC50−X))). The Hill slope was constrained to 1.0. EC50 values were converted to pEC50 values using the formula: pEC50=−Log (EC50).

[3] = in vivo; design: species or system Sprague-Dawley rats; conditions: rat, iv, 0.033 mg/kg
Summary of the method: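 Male Sprague-Dawley rats, non-fasted (n=3), given peptide in saline as 1-h IV or SC infusion at 0.033 mg/kg, or SC bolus at 0.3 mg/kg; jugular blood to 48 h into K2EDTA plus protease inhibitors. Plasma extracted by precipitation or WCX solid-phase extraction, quantified by UPLC-MS/MS against standards in matching rat plasma.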

- clearance ([1]; iv): 20 mL/min/kg
Compound: CC[C@H](C)[C@H](NC(=O)[C@@H]1CCCN1C(=O)CNC(=O)[C@H](Cc1ccccc1)NC(=O)[C@H](CC(N)=O)NC(=O)[C@H](CC(N)=O)NC(=O)[C@H](CO)NC(=O)[C@H](CO)NC(=O)[C@H](Cc1c[nH]cn1)NC(=O)[C@@H](NC(=O)[C@H](CC(C)C)NC(=O)[C@H](Cc1ccc(O)cc1)NC(=O)[C@H](CC(N)=O)NC(=O)[C@H](C)NC(=O)[C@H](CC(C)C)NC(=O)[C@H](CCCNC(=N)N)NC(=O)[C@H](CO)NC(=O)[C@@H](NC(=O)[C@H](C)NC(=O)[C@@H]1CSSC[C@H](NC(=O)[C@@H](N)CO)C(=O)N[C@@H](CC(N)=O)C(=O)N[C@@H]([C@@H](C)O)C(=O)N[C@@H](CO)C(=O)N[C@@H]([C@@H](C)O)C(=O)N1)[C@@H](C)O)C(C)C)C(=O)N[C@@H](CC(C)C)C(=O)N1CCC[C@H]1C(=O)N1CCC[C@H]1C(=O)N[C@H](C(=O)N[C@@H](CCCCN)C(=O)N[C@H](C(=O)NCC(=O)N[C@@H](CO)C(=O)N[C@@H](CCC(=O)O)C(=O)N[C@H](C(=O)N[C@@H](Cc1ccc(O)cc1)C(N)=O)[C@@H](C)O)C(C)C)[C@@H](C)O [Compound A111] (H-SCNTSTCATSRLANYLVHSSNNFGPILPPTKVGSETY-NH2; disulfide 2-7)

- clearance ([1]; linear polypeptides, 3-hour intravenous infusion, 0.100 mg/kg, male Sprague-Dawley rats, read-out: CL): 20 mL/min/kg
Compound: CC[C@H](C)[C@H](NC(=O)[C@@H]1CCCN1C(=O)CNC(=O)[C@H](Cc1ccccc1)NC(=O)[C@H](CC(N)=O)NC(=O)[C@H](CC(N)=O)NC(=O)[C@H](CO)NC(=O)[C@H](CO)NC(=O)[C@H](CCCCN)NC(=O)[C@H](Cc1c[nH]cn1)NC(=O)[C@H](CC(C)C)NC(=O)[C@H](CCC(=O)O)NC(=O)[C@H](CC(N)=O)NC(=O)[C@H](C)NC(=O)[C@H](CC(C)C)NC(=O)[C@H](CCCNC(=N)N)NC(=O)[C@H](CCC(N)=O)NC(=O)[C@@H](NC(=O)[C@H](C)NC(=O)[C@@H]1CSSC[C@H](NC(=O)[C@@H](N)CO)C(=O)N[C@@H](CC(N)=O)C(=O)N[C@@H]([C@@H](C)O)C(=O)N[C@@H](CO)C(=O)N[C@@H]([C@@H](C)O)C(=O)N1)[C@@H](C)O)C(=O)N[C@@H](CC(C)C)C(=O)N1CCC[C@H]1C(=O)N1CCC[C@H]1C(=O)N[C@H](C(=O)N[C@@H](CCCCN)C(=O)N[C@H](C(=O)NCC(=O)N[C@@H](CO)C(=O)N[C@@H](CC(N)=O)C(=O)N[C@H](C(=O)N[C@@H](Cc1ccc(O)cc1)C(N)=O)[C@@H](C)O)C(C)C)[C@@H](C)O [Compound A17] (H-SCNTSTCATQRLANELHKSSNNFGPILPPTKVGSNTY-NH2; disulfide 2-7)

Compound: CC[C@H](C)[C@H](NC(=O)[C@H](C)NC(=O)[C@@H](NC(=O)[C@H](CCC(N)=O)NC(=O)[C@@H]1CCCN1C(=O)[C@H](Cc1ccccc1)NC(=O)[C@@H](NC(=O)[C@H](Cc1c[nH]cn1)NC(=O)[C@H](Cc1ccccc1)NC(=O)[C@H](CCCCN)NC(=O)[C@H](CC(N)=O)NC(=O)[C@H](Cc1ccccc1)NC(=O)[C@H](CC(=O)O)NC(=O)[C@H](CCC(N)=O)NC(=O)[C@@H](NC(=O)[C@H](Cc1ccc(O)cc1)NC(=O)[C@@H](NC(=O)CNC(=O)[C@H](CC(C)C)NC(=O)[C@H](CCSC)NC(=O)[C@@H]1CSSC[C@H](N)C(=O)NCC(=O)N[C@@H](CC(N)=O)C(=O)N[C@@H](CC(C)C)C(=O)N[C@@H](CO)C(=O)N[C@@H]([C@@H](C)O)C(=O)N1)[C@@H](C)O)[C@@H](C)O)[C@@H](C)O)[C@@H](C)O)C(=O)NCC(=O)N[C@H](C(=O)NCC(=O)N[C@@H](C)C(=O)N1CCC[C@H]1C(N)=O)C(C)C [hCalcitonin, human calcitonin, reference compound]
- effect of HSA on potency at hCTR [2]: unaffected by the presence of HSA

Compound: CC[C@H](C)[C@H](NC(=O)[C@@H]1CCCN1C(=O)CNC(=O)[C@H](Cc1ccccc1)NC(=O)[C@H](CC(N)=O)NC(=O)[C@H](CC(N)=O)NC(=O)[C@H](CO)NC(=O)[C@H](CO)NC(=O)[C@H](CCCCN)NC(=O)[C@H](Cc1c[nH]cn1)NC(=O)[C@H](CC(C)C)NC(=O)[C@H](CCCCNC(=O)CCCCCCCCCCCC(=O)O)NC(=O)[C@H](CC(N)=O)NC(=O)[C@H](C)NC(=O)[C@H](CC(C)C)NC(=O)[C@H](CCCNC(=N)N)NC(=O)[C@H](CCC(N)=O)NC(=O)[C@@H](NC(=O)[C@H](C)NC(=O)[C@@H]1CSSC[C@H](NC(=O)[C@@H](N)CO)C(=O)N[C@@H](CC(N)=O)C(=O)N[C@@H]([C@@H](C)O)C(=O)N[C@@H](CO)C(=O)N[C@@H]([C@@H](C)O)C(=O)N1)[C@@H](C)O)C(=O)N[C@@H](CC(C)C)C(=O)N1CCC[C@H]1C(=O)N1CCC[C@H]1C(=O)N[C@H](C(=O)N[C@@H](CCCCN)C(=O)N[C@H](C(=O)NCC(=O)N[C@@H](CO)C(=O)N[C@@H](CCC(=O)O)C(=O)N[C@H](C(=O)N[C@@H](Cc1ccc(O)cc1)C(N)=O)[C@@H](C)O)C(C)C)[C@@H](C)O [Compound A31] (H-SCNTSTCATQRLANK(X5)LHKSSNNFGPILPPTKVGSETY-NH2; disulfide 2-7)
- Vd [3]: 0.57 L/kg
- clearance [3]: 18.9 mL/min/kg
- half-life [3]: 24.2 min
